Results: US3961041A, “Effervescent enteric coated L-dopa formulation and method of using the same” (priority 1974, dated 1976)

Key:
[1] = Absorption of L-DOPA from the gastrointestinal tract (inventors' experimentation); type: in vivo
Description: As for (1), it has been confirmed that the decomposition of L-DOPA in the stomach is remarkable as shown in numerous reports in the past.
As a result, optimum absorption of the drug is totally incomplete.

[2] = tested on: decarboxylase enzymes; settings: cited from earlier work
[3] = tested on: Parkinson's Disease; settings: in vivo, po; cited from earlier work
[4] = cited from earlier work
[5] = dopamine as metabolite; cited from earlier work

absorption from the gastrointestinal tract ([1]; in vivo)	absorption, oral as compared to intravenous ([1]; oral vs intravenous)	Compound	optimum absorption site ([1]; in vivo)	decarboxylation via decarboxylase enzymes in the intestine [2]	side effects when massive dosing is administered [3]	decomposition in the stomach ([4]; in vivo)	stability in the gastrointestinal tract, especially in the stomach ([4]; in vivo)	absorption from the gastrointestinal tract (prior art reason) ([4]; oral)	therapeutic effect in the treatment of Parkinson's Disease [5]
almost completely absorbed	not appreciably different	N[C@@H](Cc1ccc(O)c(O)c1)C(=O)O [L-DOPA, 3,4-dihydroxy-L-phenylalanine]	small intestine, especially in the upper part thereof	apt to undergo decarboxylation	marked side effects	remarkable	unstable	poorly absorbed	
		NCCc1ccc(O)c(O)c1 [dopamine]							does not have any therapeutic effect
